SMILES strings stand for the structures. The source made the active and inactive calls.

From ChEMBL document CHEMBL1649515, “Heteroresistance to fluconazole in Cryptococcus neoformans is intrinsic and associated with virulence” (2009) come the findings set out here.

Test [1] deals with Cryptococcus neoformans. Briefly: Antimicrobial activity against Cryptococcus neoformans serotype D. The format is functional.
Test [2] concerns Cryptococcus neoformans. As to the kind of experiment: Antimicrobial activity against Cryptococcus neoformans serotype A. The format is functional.
In another test the test system is Aspergillus fumigatus. Briefly: Antimicrobial activity against Aspergillus fumigatus at 8 to 32 ug/ml. The format is functional, organism-based.
The next test relates to Burkholderia sp. Briefly: Antimicrobial activity against Burkholderia sp. at 8 to 32 ug/ml. The format is functional.
A further test concerns Streptomyces platensis. As to the kind of experiment: Antimicrobial activity against Streptomyces platensis at 8 to 32 ug/ml. The format is functional.

Take `OC(Cn1cncn1)(Cn1cncn1)c1ccc(F)cc1F` [FLUCONAZOLE]: the minimal inhibitory concentration (MIC) in the test with Cryptococcus neoformans [1] and with Cryptococcus neoformans [2] was not below 64 µg/mL in each case. Further, the outcome in the test with Aspergillus fumigatus, in the test on Burkholderia sp. and with Streptomyces platensis was inactive.

As a reminder, the MIC is the smallest concentration in the dilution series that meets the test's criterion for growth inhibition.
